The test system of the assay is Ciliary muscle cells (rCSMCs) isolated from rat's eyes. The assay can be described thus: cGMP content in rat ciliary muscle cells, isolated compounds (ELISA). Type of assay: cell-based. Particulars: compounds 0.01, 0.05, 0.1, 1 μg/mL, 15 minutes. How it is done:
Ciliary muscle cells ([…]) isolated from rat's eyes were dispensed into 6 wells at 5×10^5 cells/well and stabilized for one day. After stabilization, 3-isobuytyl-1-methylxanthine (1 mM) was pre-treated for 10 minutes, and then luteolin-7-O-diglucuronide and apigenin-7-O-diglucuronide compounds isolated from the Perilla frutescens (L.) Britton var. acuta (Thunb.) Kudo leaf extract were reacted for 15 minutes at concentrations of 0.01, 0.05, 0.1, and 1 μg/mL. The cGMP contents of these compounds were measured using an ELISA kit.
Background: ELISA stands for enzyme-linked immunosorbent assay.

Turning to luteolin-7-O-diglucuronide, the cGMP content entry is listed as “increasing the cGMP content”.
For `O=C(O)[C@H]1O[C@@H](O[C@H]2[C@H](Oc3cc(O)c4c(=O)cc(-c5ccc(O)cc5)oc4c3)O[C@H](C(=O)O)[C@@H](O)[C@@H]2O)[C@H](O)[C@@H](O)[C@@H]1O` [apigenin-7-O-diglucuronide], the cGMP content result is listed as “increasing the cGMP content”.

Source of the values: US20210260145A1, “PHARMACEUTICAL COMPOSITION FOR ALLEVIATING EYE FATIGUE, CONTAINING, AS ACTIVE INGREDIENTS, LUTEOLIN-7-O-DIGLUCURONIDE AND APIGENIN-7-O-DIGLUCURONIDE ISOLATED FROM PERILLA FRUTESCENS (L.) BRITTON VAR. ACUTA (THUNB.) KUDO LEAF EXTRACT” (JEONNAM BIOINDUSTRY FOUNDATION, priority 2018, published 2021).
